Reference: US20120328518A1, “PROSTATE SPECIFIC MEMBRANE ANTIGEN INHIBITORS” (PIRAMAL IMAGING SA, priority 2009, published 2012)
Blank lines part the entries; values can stand above or below the molecule they belong to.

How the values were obtained:
[1] = tested on: LNCaP xenografts; test: PET/CT-imaging in LNCaP-tumor bearing mice; assay type: in vivo
[2] = Biodistribution in LNCaP bearing nude mice; assay type: in vivo
Description: Male nude mice were implanted subcutaneously with 10 million LNCaP tumor cells, which were freshly expanded in a sterilized solution phosphate-buffered saline (PBS, pH 7.4). 4 weeks after inoculation the mice were injected into the tail vein with 150 kBq of radiolabeled Example F13, diluted in PBS (total injected volume 100 μl). At 30, 60, 120, and 180 min intervals, the mice (in groups of 3) were sacrificed and the organs of interest were collected, rinsed of excess blood, weighed and counted in a gamma-counter.

[3] = Stability in human plasma in vitro (TLC); assay type: in vitro ADME
Description: Stability of Example F13 was investigated in human plasma in vitro. The Example was analyzed by TLC at different time points. […] After two hours, 82% of Example F13 was still intact.

[4] = Metabolic stability, mouse microsomes (TLC); assay type: in vitro ADME; settings: TLC after different timepoints
Description: (§1) Metabolic stability of Example F13 was assessed by incubating F13 in the presence of mouse, rat, and human microsomes and rat hepatocytes. After different timepoints TLC analysis was performed. No metabolism by microsomes or hepatocytes was found.

[5] = Metabolic stability, rat microsomes (TLC); assay type: in vitro ADME; settings: TLC after different timepoints
Description: as §1

[6] = Metabolic stability, rat hepatocytes (TLC); assay type: in vitro ADME; settings: TLC after different timepoints
Description: as §1

[7] = tested on: LNCaP xenografts; test: PET/CT-imaging in LNCaP-tumor bearing mice; assay type: in vivo; settings: 50-70 min after injection of ~10 MBq
Description: Example F13 was imaged on a microPET/CT (Inveon, Siemens) in LNCaP tumor-bearing mice 50-70 min after injection of ˜10 MBq radiotracer Example F13.
Example F14 was imaged on a microPET/CT (Inveon, Siemens) in LNCaP tumor-bearing mice 50-70 min after injection of ˜10 MBq radiotracer Example F14.

[8] = Metabolic stability, human microsomes (TLC); assay type: in vitro ADME; settings: TLC after different timepoints
Description: as §1

[9] = target: T1, PSMA (FOLH1) (Homo sapiens, UniProt Q04609); test: In vitro inhibition of NAALADase activity in LNCaP membrane extracts; assay type: biochemical; settings: crude membrane extracts from LNCaP cells; release of [3H]-Glutamate from [3H]NAAG, pH7.4, 30 min at 37° C.; read-out: IC50 with respect to NAALADase activity
T1 construct: protein extracted from the membrane fraction of LNCaP cells; host or cells: LNCaP cells (crude membrane extract)
Description: NAALADase activity was assayed essentially as described previously (Slusher B S, Tsai G, Yoo G, Coyle J T. Immunocytochemical localization of the N-acetyl-aspartyl-glutamate hydrolyzing enzyme N-acetylated alpha-linked acidic dipeptidase [NAALADase]. J Comp Neurol 1992; 315:217-229) in crude membrane extracts from LNCaP tissue culture cells (ref ATCC CRL-1740). Briefly, the release of [3H]-Glutamate from [3H] N-acetyl-aspartyl-glutamate (NAAG) in 50 mM Tris-Cl buffer pH7.4 after 30 min at 37° C. was measured using 1-5 μg/ml of protein extracted from the membrane fraction of LNCaP cells; substrate and product were resolved by cation-exchange liquid chromatography.

[10] = 110-130 min after injection of ~10 MBq
[11] = 0.5 h after injection of 150 kBq into tail vein
[12] = 1.0 h after injection of 150 kBq into tail vein
[13] = 2.0 h after injection of 150 kBq into tail vein
[14] = 3.0 h after injection of 150 kBq into tail vein

T1 sequence (Q04609 whole entry): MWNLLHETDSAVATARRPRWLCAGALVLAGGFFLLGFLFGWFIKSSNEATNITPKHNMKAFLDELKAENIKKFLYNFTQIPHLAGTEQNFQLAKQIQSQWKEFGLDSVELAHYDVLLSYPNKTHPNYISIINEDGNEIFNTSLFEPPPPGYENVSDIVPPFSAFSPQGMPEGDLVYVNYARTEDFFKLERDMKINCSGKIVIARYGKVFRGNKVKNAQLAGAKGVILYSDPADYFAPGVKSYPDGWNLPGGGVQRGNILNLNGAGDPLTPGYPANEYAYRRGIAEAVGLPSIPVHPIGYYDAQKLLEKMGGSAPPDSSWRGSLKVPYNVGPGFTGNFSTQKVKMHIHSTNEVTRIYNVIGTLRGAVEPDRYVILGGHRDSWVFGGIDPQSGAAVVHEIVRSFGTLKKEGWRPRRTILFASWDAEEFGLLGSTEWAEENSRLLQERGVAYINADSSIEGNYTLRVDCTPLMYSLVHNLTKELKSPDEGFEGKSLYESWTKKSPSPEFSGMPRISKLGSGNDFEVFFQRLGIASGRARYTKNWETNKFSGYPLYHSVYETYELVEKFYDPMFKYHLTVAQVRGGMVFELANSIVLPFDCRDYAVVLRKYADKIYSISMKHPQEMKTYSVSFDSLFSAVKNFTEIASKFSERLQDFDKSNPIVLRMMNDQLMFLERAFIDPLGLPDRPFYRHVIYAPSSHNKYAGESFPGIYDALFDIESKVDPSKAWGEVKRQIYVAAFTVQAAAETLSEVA

background activity in PET/CT image [7]: very low background activity | kidney and bladder uptake in PET/CT image [7]: strong kidney and bladder uptake | renal clearance [7]: rapid renal clearance
Compound: O=C(O)[C@H](C[C@@H]([18F])C(=O)O)CP(=O)(O)O [Example F14, (2R,4S)-2-[^18F]-Fluoro-4-(phosphonomethyl)pentanedioic acid]
tumor-contrast in PET/CT image [7]: High tumor-contrast

IC50 [9]: 0.03 µM
Compound: O=C(O)C(F)CC(CP(=O)(O)O)C(=O)O (racemic) [Example F3, rac-2-Fluoro-4-(phosphonomethyl)pentanedioic acid]
blocking of tumor-contrast of radiotracer Example F15a ([1]; 22 μg non-radioactive Example F3 with ~10 MBq Example F15a, 110-130 min): effectively blocked

IC50 [9]: 0.007 µM
Compound: O=C(O)[C@H](C[C@H](F)C(=O)O)CP(=O)(O)O [Example F10, (2S,4S)-2-Fluoro-4-(phosphonomethyl)pentanedioic acid]

Further lines, the molecule ahead of its results:

Compound: O=C(O)C([18F])CC(CP(=O)(O)O)C(=O)O (racemic) [Example F15a, rac-2-[^18F]-Fluoro-4-(phosphonomethyl)pentanedioic acid]
background activity in PET/CT image [1, 10]: very low background activity | kidney and bladder uptake in PET/CT image [1, 10]: strong kidney and bladder uptake | renal clearance [1, 10]: rapid renal clearance | tumor-contrast in PET/CT image [1, 10]: High tumor-contrast

Compound: O=C(O)[C@H](C[C@H]([18F])C(=O)O)CP(=O)(O)O [Example F13, (2S,4S)-2-[^18F]-Fluoro-4-(phosphonomethyl)pentanedioic acid]
% Dosis/g adrenals [2, 11]: 3.31 % Dosis/g | % Dosis/g blood [2, 11]: 0.79 % Dosis/g | % Dosis/g bone [2, 11]: 2.61 % Dosis/g | % Dosis/g brain [2, 11]: 0.05 % Dosis/g | % Dosis/g fat [2, 11]: 0.78 % Dosis/g | % Dosis/g heart [2, 11]: 0.53 % Dosis/g | % Dosis/g intestine [2, 11]: 0.23 % Dosis/g | % Dosis/g kidney [2, 11]: 105.78 % Dosis/g | % Dosis/g liver [2, 11]: 0.40 % Dosis/g | % Dosis/g lung [2, 11]: 1.12 % Dosis/g | % Dosis/g muscle [2, 11]: 0.26 % Dosis/g | % Dosis/g pankreas [2, 11]: 0.45 % Dosis/g | % Dosis/g prostate [2, 11]: 0.69 % Dosis/g | % Dosis/g skin [2, 11]: 0.85 % Dosis/g | % Dosis/g spleen [2, 11]: 3.00 % Dosis/g | % Dosis/g stomach [2, 11]: 0.51 % Dosis/g | % Dosis/g tail [2, 11]: 4.69 % Dosis/g | % Dosis/g testes [2, 11]: 0.76 % Dosis/g | % Dosis/g thyroid [2, 11]: 0.68 % Dosis/g | % Dosis/g tumor [2, 11]: 5.31 % Dosis/g | % Dosis/g adrenals [2, 12]: 2.46 % Dosis/g | % Dosis/g blood [2, 12]: 0.33 % Dosis/g | % Dosis/g bone [2, 12]: 2.53 % Dosis/g | % Dosis/g brain [2, 12]: 0.06 % Dosis/g | % Dosis/g fat [2, 12]: 0.36 % Dosis/g | % Dosis/g heart [2, 12]: 0.27 % Dosis/g | % Dosis/g intestine [2, 12]: 0.23 % Dosis/g | % Dosis/g kidney [2, 12]: 105.40 % Dosis/g | % Dosis/g liver [2, 12]: 0.42 % Dosis/g | % Dosis/g lung [2, 12]: 0.49 % Dosis/g | % Dosis/g muscle [2, 12]: 0.21 % Dosis/g | % Dosis/g pankreas [2, 12]: 0.22 % Dosis/g | % Dosis/g prostate [2, 12]: 0.70 % Dosis/g | % Dosis/g skin [2, 12]: 0.76 % Dosis/g | % Dosis/g spleen [2, 12]: 2.48 % Dosis/g | % Dosis/g stomach [2, 12]: 0.26 % Dosis/g | % Dosis/g tail [2, 12]: 2.37 % Dosis/g | % Dosis/g testes [2, 12]: 0.50 % Dosis/g | % Dosis/g thyroid [2, 12]: 0.45 % Dosis/g | % Dosis/g tumor [2, 12]: 4.08 % Dosis/g | % Dosis/g adrenals [2, 13]: 0.51 % Dosis/g | % Dosis/g blood [2, 13]: 0.07 % Dosis/g | % Dosis/g bone [2, 13]: 1.52 % Dosis/g | % Dosis/g brain [2, 13]: 0.04 % Dosis/g | % Dosis/g fat [2, 13]: 0.17 % Dosis/g | % Dosis/g heart [2, 13]: 0.06 % Dosis/g | % Dosis/g intestine [2, 13]: 0.28 % Dosis/g | % Dosis/g kidney [2, 13]: 41.15 % Dosis/g | % Dosis/g liver [2, 13]: 0.24 % Dosis/g | % Dosis/g lung [2, 13]: 0.17 % Dosis/g | % Dosis/g muscle [2, 13]: 0.12 % Dosis/g | % Dosis/g pankreas [2, 13]: 0.07 % Dosis/g | % Dosis/g prostate [2, 13]: 0.66 % Dosis/g | % Dosis/g skin [2, 13]: 0.29 % Dosis/g | % Dosis/g spleen [2, 13]: 0.42 % Dosis/g | % Dosis/g stomach [2, 13]: 0.11 % Dosis/g | % Dosis/g tail [2, 13]: 1.73 % Dosis/g | % Dosis/g testes [2, 13]: 0.15 % Dosis/g | % Dosis/g thyroid [2, 13]: 0.18 % Dosis/g | % Dosis/g tumor [2, 13]: 3.13 % Dosis/g | % Dosis/g adrenals [2, 14]: 0.573 % Dosis/g | % Dosis/g blood [2, 14]: 0.08 % Dosis/g | % Dosis/g bone [2, 14]: 2.12 % Dosis/g | % Dosis/g brain [2, 14]: 0.03 % Dosis/g | % Dosis/g fat [2, 14]: 0.35 % Dosis/g | % Dosis/g heart [2, 14]: 0.08 % Dosis/g | % Dosis/g intestine [2, 14]: 1.03 % Dosis/g | % Dosis/g kidney [2, 14]: 46.96 % Dosis/g | % Dosis/g liver [2, 14]: 0.35 % Dosis/g | % Dosis/g lung [2, 14]: 0.16 % Dosis/g | % Dosis/g muscle [2, 14]: 0.06 % Dosis/g | % Dosis/g pankreas [2, 14]: 0.09 % Dosis/g | % Dosis/g prostate [2, 14]: 0.53 % Dosis/g | % Dosis/g skin [2, 14]: 0.24 % Dosis/g | % Dosis/g spleen [2, 14]: 0.41 % Dosis/g | % Dosis/g stomach [2, 14]: 0.20 % Dosis/g | % Dosis/g tail [2, 14]: 2.52 % Dosis/g | % Dosis/g testes [2, 14]: 0.20 % Dosis/g | % Dosis/g thyroid [2, 14]: 0.30 % Dosis/g | % Dosis/g tumor [2, 14]: 4.54 % Dosis/g | release of free fluoride upon incubation in human plasma ([3]; TLC at different time points): did not show increased release of free fluoride | compound still intact in human plasma ([3]; after two hours, TLC): 82% | metabolism by microsomes [4]: No metabolism | metabolism by microsomes [5]: No metabolism | metabolism by hepatocytes [6]: No metabolism | background activity in PET/CT image [7]: very low background activity | kidney and bladder uptake in PET/CT image [7]: strong kidney and bladder uptake | renal clearance [7]: rapid renal clearance | tumor-contrast in PET/CT image [7]: High tumor-contrast | metabolism by microsomes [8]: No metabolism

Compound: O=C(O)[C@H](C[C@@H](F)C(=O)O)CP(=O)(O)O [Example F8, (2R,4S)-2-Fluoro-4-(phosphonomethyl)pentanedioic acid]
IC50 [9]: 0.014 µM
